According to US9115072B2, “Compounds and method for reducing uric acid” (WELLSTAT THERAPEUTICS CORPORATION, priority 2008, dated 2015):

Tests used:
[1] = tested on: mice treated with the uricase inhibitor potassium oxonate; assay: Uric acid excretion in urine of mice treated with the uricase inhibitor potassium oxonate; type: in vivo, mouse; settings: for Urine Uric Acid: urine collected between 3 and 5 hours after drug; for Effect on uric acid in urine versus the Oxonate control group (in words): urine collected between 3 and 5 hours after drug administration
Text: The model to induce hyperuricemia involves the use of the uricase (urate oxidase) inhibitor potassium oxonate that causes a delay in the degradation of uric acid to allantoin. Humans have little or no uricase activity, so inhibition of this enzyme with potassium oxonate makes mouse uric acid processing more similar to that of humans. Male 11-week old C57/B16 mice (Harlan, Frederick, Md.) were used in the studies (8 per experimental group). Mice were receiving standard rodent chow that was removed one hour before administration of potassium oxonate. Mice were given an intraperitoneal injection (i.p.) of potassium oxonate (300 mg/kg) that was suspended in 0.5% hydroxypropylmethylcellulose (HPMC). […] Urine collection was performed at 1, 3 and 5 hours after drug treatments and uric acid was measured with a colorimetric assay (BioVision Research Products, Mountain View, Calif.).

human URAT1 = target: T1, human URAT1 (Homo sapiens, UniProt Q96S37); assay: URAT1 inhibition assay, [8-14C] urate uptake in hURAT1-HEK cells; type: cell-based; settings: 50 μM [8-14C] urate
T1 construct: The full-length hURAT1 cDNA was obtained from the vector pCMV6-XL5 and subcloned into the expression vector pCMV6-Neo
T1 sequence (Q96S37 1-553): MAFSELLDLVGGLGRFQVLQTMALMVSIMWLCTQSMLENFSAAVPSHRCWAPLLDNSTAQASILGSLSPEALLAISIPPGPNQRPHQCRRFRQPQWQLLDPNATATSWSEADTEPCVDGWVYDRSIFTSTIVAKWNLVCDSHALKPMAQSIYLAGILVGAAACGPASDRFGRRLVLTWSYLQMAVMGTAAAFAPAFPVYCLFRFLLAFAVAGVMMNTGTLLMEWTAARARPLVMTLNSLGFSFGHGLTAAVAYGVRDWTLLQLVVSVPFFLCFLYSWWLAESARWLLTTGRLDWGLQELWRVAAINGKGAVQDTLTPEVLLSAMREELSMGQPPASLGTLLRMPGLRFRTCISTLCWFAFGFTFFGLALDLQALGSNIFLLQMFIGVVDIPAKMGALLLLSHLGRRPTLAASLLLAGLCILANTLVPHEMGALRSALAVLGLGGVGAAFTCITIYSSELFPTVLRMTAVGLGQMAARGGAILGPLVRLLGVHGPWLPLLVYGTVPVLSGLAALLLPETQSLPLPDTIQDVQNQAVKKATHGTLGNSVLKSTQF
Description: A suitable assay involves transfection of cells (e.g. human embryonic kidney cells; “HEK”) with a vector encoding human URAT1, followed by determination of the ability of transfected cells to take up radiolabeled uric acid. The activity of compounds as URAT1 inhibitors is evaluated by their ability to block uric acid uptake by transfected cells.
Urate (50-60 mCi/mmol; American Radio Chemicals, Cat. No. ARC0513).
Plasmid vector pCMV6-XL5 containing hURAT1 cDNA (Cat. No. SC125624) and the expression vector pCMV6-Neo (Cat. No. pCMVNEO) were obtained from OriGene Technologies, Inc. The full-length hURAT1 cDNA was obtained from the vector pCMV6-XL5 and subcloned into the expression vector pCMV6-Neo to create the hURAT1 expression plasmid pCMV6-hURAT1. The sequences were verified by automatic DNA sequencing.
For transfection experiments, cells were plated on 60 mm dishes in 1 ml media per dish. […] Stable transfectants expressing hURAT1 (herein after referred as hURAT1-HEK cells) or cells having only the expression vector pCMV6-Neo (herein after referred as mock-HEK cells) were verified using reverse transcription polymerase chain reaction (RT-PCR) methods.
Before the uptake assay started, the culture medium was removed and the cells were incubated for 5 min in 0.6 ml of HBSS. After that HBSS was removed, the prepared reaction solutions were added into each well and incubated for 5 min at room temperature. Then the reaction solution was removed, cells were washed twice with 0.6 ml of cold HBSS and lysed with 0.2 ml of 0.1 M NaOH for 20 min. […] Test compounds were dissolved in DMSO and the same concentration of DMSO was added into the wells of mock-HEK cells and the hURAT1-HEK cells that didn't contain test compounds. For each test compound, the uptake assay was performed 2 times and carried out in triplicate. Urate uptake of the cells for each test condition was presented as the average percent inhibition in comparison to the DMSO control. The radioactivity values obtained for the wells that contained DMSO were taken as 100% uptake of the cells. The observed concentration-percent inhibition data were fitted to a sigmoidal concentration-effect model, where: IC50^Slope=[(100*Conc^Slope)/% Inhibition]−Conc^Slope
Additional drug concentrations were tested for determination of IC-50 values for some compounds (Table 6).

[2] = tested on: healthy, normal men and women; assay: Single oral dose clinical study, blood/plasma uric acid levels (Examples 1 and 4); type: in vivo, human; settings: for Mean Percent Change (blood uric acid levels): before vs 24 hours after administration
Description: Five groups of 4 healthy, normal men and women received a single, oral administration of escalating doses of Compound BI (n=3 per group) or placebo capsules (n=1 per group) in a randomized, double blind clinical study. Blood uric acid levels were measured before and 24 hours after administration of study treatment. Compound BI was administered at doses of 50, 100, 200, 400 or 800 mg.
Plasma samples taken immediately prior to and at 1, 2, 4, 6, 12 and 24 hours after a single, oral administration of a test compound to 4 healthy, normal men and women in each of three groups as described above in Example 1 were analyzed to determine uric acid levels. Compound BI (n=3 per group) or placebo capsules (n=1 per group) were administered in a randomized, double blind clinical study. Plasma samples taken at the time points indicated from patients receiving Compound BI at doses of 200, 400 or 800 mg were stored at −70° C. and analyzed at a later time.

[3] = tested on: healthy normal men and women; assay: Seven-day once/twice daily dosing clinical study, blood/plasma uric acid levels (Examples 2 and 5); type: in vivo, human; settings: for Percent Change in Uric Acid Levels Following a Single Administration of Study Treatment, Mean Percent Change: 24 hours after the first administration; for Percent Change in Uric Acid Levels Following a Daily Administration of Study Treatment for Seven Days, Mean Percent Change: after 7 consecutive days; for Effect on blood uric acid levels (in words): 400 mg twice per day or 800 mg once per day groups
Description: Two groups of 8 healthy normal men and women received oral administration of either 800 mg Compound BI once per day (n=6 per group) or 400 mg Compound BI twice per day (n=6 per group) or placebo capsules (n=2 per group) in a randomized, double blind clinical study. Blood uric acid levels were measured before administration of study treatment, 24 hours after the first administration of study treatment and after 7 consecutive days of study treatment administration.
Sixteen men and women participating in a clinical study were randomly assigned to receive either placebo capsules (n=4 subjects), 400 mg Compound BI twice per day (n=6 subjects), or 800 mg Compound BI once per day (n=6 subjects) for seven consecutive days. Plasma samples taken prior to (Time 0) and at 1, 2, 4, 9, 11, 13, 18 and 24 hours after the initial administration of the test article on Day 7 of the study were stored at −70° C. and later analyzed for uric acid. (This Example 5 is a continuation of the experiment described in Example 2.)

[4] = 100 mg/kg p.o. after oxonate 300 mg/kg i.p.

SMILES | Urine Uric Acid ([1]; 20 mg/kg p.o. after oxonate 300 mg/kg i.p.) [mg/dL] | Effect on uric acid in urine versus the Oxonate control group (in words) [1] | Urine Uric Acid ([1]; 30 mg/kg p.o. after oxonate 300 mg/kg i.p.) [mg/dL] | Urine Uric Acid [1, 4] [mg/dL] | IC50 (human URAT1) [nM] | inhibition at 10 µM (human URAT1; drug concentration typically 10 micromolar, read-out: % of Inhibition (uric acid uptake)) [%] | Effect on plasma uric acid levels over 24 hours (in words) ([2]; single dose 200, 400 or 800 mg, FIG. 2) | Mean Percent Change (blood uric acid levels) ([2]; single oral dose 50 mg) [%] | Mean Percent Change (blood uric acid levels) ([2]; single oral dose 100 mg) [%] | Mean Percent Change (blood uric acid levels) ([2]; single oral dose 200 mg) [%] | Mean Percent Change (blood uric acid levels) ([2]; single oral dose 400 mg) [%] | Mean Percent Change (blood uric acid levels) ([2]; single oral dose 800 mg) [%] | Effect on blood uric acid levels (in words) ([2]; single oral dose 50, 100, 200, 400 or 800 mg, 24 hours) | Percent Change in Uric Acid Levels Following a Single Administration of Study Treatment, Mean Percent Change ([3]; 400 mg bid) [%] | Percent Change in Uric Acid Levels Following a Daily Administration of Study Treatment for Seven Days, Mean Percent Change ([3]; 400 mg bid) [%] | Plasma uric acid levels at Time 0 on Day 7 compared to Time 0 on the first day and to placebo (in words) ([3]; 400 mg twice per day or 800 mg once per day for seven days, FIG. 3) | Percent Change in Uric Acid Levels Following a Single Administration of Study Treatment, Mean Percent Change ([3]; 800 mg qd) [%] | Percent Change in Uric Acid Levels Following a Daily Administration of Study Treatment for Seven Days, Mean Percent Change ([3]; 800 mg qd) [%] | Effect on blood uric acid levels (in words) ([3]; daily administration for 7 days) | Effect on blood uric acid levels (in words) ([3]; single dose)
Oc1ncnc2[nH]ncc12 [Allopurinol] | 79 | reduced the concentration of uric acid in urine | – | – | – | – | – | – | – | – | – | – | – | – | – | – | – | – | – | –
CCc1oc2ccccc2c1C(=O)c1cc(Br)c(O)c(Br)c1 [Benzbromarone] | – | induced an increase in uric acid concentration in urine, though to lesser degree than Compound BI | 185 | 173 | – | – | – | – | – | – | – | – | – | – | – | – | – | – | – | –
Cc1cccc(C)c1COc1cccc(C(=O)CCC(=O)O)c1 [Compound BI, 4-(3-(2,6-Dimethylbenzyloxy)phenyl)-4-oxobutyric acid] | – | significant increase in excreted uric acid | – | 293 | 950 | 86.1 | significant, dose-dependent reductions | −8.8 | −13.4 | −18.9 | −35.0 | −32.7 | significant, dose-dependent reduction | −54.0 | −56.7 | significantly reduced | −45.3 | −53.2 | significant reduction | significant reduction
